Assay results reported in patent publication US6602914B2, “Compounds and methods for the inhibition of the expression of VCAM-1” (AtheroGenics, Inc., priority 1997, dated 2003).

Assays:
[1] = test system: VCAM-1; experiment: VCAM-1 Assay: TNF-stimulated cells, cell-surface ELISA; type: cell-based; conditions: for IC50: bare number = IC50, NE not defined in the patent, read-out: VCAM-1 IC50 or % inhibition at [μM]: IC50; for VCAM-1 % inhibition at [μM]: at 50 μM
Experimental: Two to four confluent P150 plates are trypsinized and the cells transferred to a 50 mL conical centrifuge tube. The cells are pelleted, resuspended, and counted using the trypan blue exclusion method.
Cells are resuspended at a concentration of 36,000 cells/mL and 1 mL is aliquoted per well.
Cells are split into 24 well tissue culture plates. The cells in each well should be approximately 90-95% confluent by the following day. Cells should not be older than passage 8.
Compounds are initially screened at 50 μM and 10 μM. A 50 mM stock solution for each compound is prepared in culture medium. The stock solution is diluted to 5 mM and 1 mM. When 10 μL of the 5 mM solution is added to the well (1 mL medium/well), the final concentration will be 50 μM. Adding 10 μL of the 1 mM solution to the well will give a final concentration of 10 μM.
Compounds which will not go into solution in culture medium are resuspended in DMSO at a concentration of 25 mM. The stock solution is then diluted to the final concentration in culture medium. The old medium is aspirated and 1 mL of the new medium with the compound is added. For example, if the final concentration is 50 μM, the 2 μL of the 25 mM stock is added per mL of culture medium. The […] solution is diluted for lower concentrations.
The compounds are added to the plate (each compound is done in duplicate). One plate is done for VCAM expression and one plate is done for ICAM expression.
Immediately after the compounds are added, TNF is added to each well. 100 units/mL TNF is usually added to each well. Since each lot of TNF varies in the number of units, each new lot is titrated to determine the optimum concentration. Therefore this concentration will change. If 100 units/mL is bing used, dilute the TNF to 10 units/μL and add 10 μL to each well.
The plates are incubated at 37° C., 5% CO2 overnight (approximately 16 hours). The next day the plates are checked under the microscope to see if there are any visual signs of toxicity. Records are made of any cell death, debris, or morphology changes, as well as insoluble compounds (particulate or turbity).
In order to assess MCP-1, the media (500 μL) is saved and frozen at −70° C. Wash cells once with roughly 1 ml/well of Hanks Balance Salt Solution (HBSS) or PBS. Gently empty the wash solution and then tap the plate onto paper towels. Add either 250 μL/well of HBSS +5% FCCS to the plank (no primary antibody wells) or 250 μL/well of primary antibody diluted in HBSS +5% FCS. Incubate for 30 minutes at 37° C. Wash the wells twice with 0.5 mL/well HBSS or PBS and gently tap the plates onto paper towels after the last wash. Add 250 μL/well of HRP-conjugated second antibody diluted in HBSS +5% FCS to every well including the blank wells (no primary antibody). Incubate at 37° C. for 30 minutes. Wash the wells four times with 0.5 mL/well HBSS or PBS and gently tap the plates onto paper towels after the last wash. Add 250 μL/well of substrate solution. Incubate at room temperature in the dark until there is adequate color development (blue). Note the length of time incubation was performed (typically 15-30 minutes). Add 75 μL/well stopper solution (8N sulfuric acid), and read A450 nm.

[2] = test system: ApoB/HepG2; experiment: Lipid Screen & IC50 Determination Protocol: ApoB ELISA of HEPG2 media; type: cell-based, human; conditions: HEPG2, 24 hours; for ApoB/HepG2 % inhibition at [μM]: at 15 μM; for IC50: bare number = IC50, NE not defined in the patent, read-out: ApoB/HepG2 IC50 or % inhibition at [μM]: IC50
Experimental: HEPG2 cell was started in 10 ml of MEM, 10% FBS, 1 mM Sodium Pyruvate. The cells were incubated in a tissue culture incubator. The cells were split into 4×96-wells plate in MEM, 10% FBS, 1 mM Sodium Pyruvate and allowed to grow to about 50% confluency and then removed.
The cells were treated with the desired concentration of compounds in 100 μl DMEM, 1% RSA for 24 hours. The compounds are dissolved in DMSO.
On the same day, 4×96-wells NuncImmunoSorb plate is coated with 100 μl of mouse anti-human ApoB monoclonal 1D1 (1:1000 dilution in 1×PBS, pH 7.4). The coating is allowed overnight.
The coated plate is washed 3 times with 1×PBS, pH 7.4, −0.05% Tween 20. 100 μl of the standards is added to the selected wells. ApoB standards are prepared at 6.25, 3.12, 1.56, 0.78, 0.39 ng, and each concentration is done in triplicates. For samples:
90 μl of 1×PBS, pH 7.4, −0.05% Tween 20 is added to each well corresponding to the sample. 10 μl of media is transferred from the treated HEPG2 plates to the ApoB ELISA plate. The plate is incubated at room temperature for 2 hours, rocking gently.
Wash the coated plate 3× with 1×PBS, pH 7.4, −0.05% Tween 20. Add 100 μl of sheep anti-human ApoB polyclonal from Boehringer Mannheim. (1:2000 dilution in 1×PBS, pH 7.4, −0.05% Tween 20) from Boehringer Mannheim. Incubate at room temperature for 1 hour, rocking gently. Wash the coated plate 3× with 1×PBS, pH 7.4, −0.05% Tween 20. Add 100 μl of rabbit anti-sheep IgG (1:2000 dilution in 1×PBS, pH 7.4, −0.05% Tween 20). Incubate at room temperature for 1 hour, rocking gently. Wash the coated plate 3× with 1×PBS, pH 7.4, −0.05% Tween 20. Add 100 μl of substrate (10 ml of distilled water, 100 μl of TMB (10 mg/ml), and 1 μl of hydrogen peroxide). Allow color to emerge and stop reaction with 25 ul of 8N sulfuric acid. Wells are read with MicroPlate Reader @ […]. Graph accumulation of ApoB in media as a percentage of control for each sample and their concentration. A determination of IC50 is obtained from the graph.
The degree of inhibition of the compounds of formulas (I) and (II) was determined by the assays described in Examples 62-64.

| Compound | IC50 [1] | VCAM-1 % inhibition at [μM] [1] | ApoB/HepG2 % inhibition at [μM] [2] | IC50 [2] |
| --- | --- | --- | --- | --- |
| CC(C)(Sc1cc(C(C)(C)C)c(O)c(C(C)(C)C)c1)Sc1cc(C(C)(C)C)c(OCC2OC2CO)c(C(C)(C)C)c1 (stereo not shown) [Oxiranemethanol, 3-[[4-[[1-[[3,5-bis(1,1-dimethylethyl)-4-hydroxyphenyl]thio]-1-methylethyl]thio]-2,6-bis(1,1-dimethylethyl)phenoxy]methyl]-] | > 100 µM | – | – | – |
| CC(C)(Sc1cc(C(C)(C)C)c(O)c(C(C)(C)C)c1)Sc1cc(C(C)(C)C)c(OCc2ccc([N+](=O)[O-])cc2)c(C(C)(C)C)c1 [Phenol, 4-[[1-[3,5-bis(1,1-dimethylethyl)-4-[(4-nitrophenyl)methoxy]phenyl]thio]-1-methylethyl]thio]2,6-bis(1,1-dimethylethyl)-] | – | 30% at 50 | 17% at 15 | – |
| CN(C)CCCSc1cc(C(C)(C)C)c(O)c(C(C)(C)C)c1 [2,6-di-tert-butyl-4-thio(3′-(dimethylamino)propyl))phenol] | – | 30% at 50 | – | – |
| CC(C)(C)c1cc(SCc2ccc(C(=O)O)o2)cc(C(C)(C)C)c1O [2,6-di-tert-butyn4-thio((2′-furancarboxylic acid)-5-methyl)phenol] | 40 µM | – | – | – |
| CC(C)(C)c1cc(SCc2ccc([N+](=O)[O-])cc2)cc(C(C)(C)C)c1O [2,6-di-tert-butyl4-thio(4′-nitrobenzyl)phenol] | 10 µM | – | – | 27 µM |
| CC(C)(Sc1cc(C(C)(C)C)c(O)c(C(C)(C)C)c1)Sc1cc(C(C)(C)C)c(OC(=O)CCCC(=O)O)c(C(C)(C)C)c1 [Pentanedioic acid, mono[4-[[1-[[3,5-bis(1,1-dimethylethyl)-4-hydroxyphenyl]thio]-1-methylethyl]thio]-2,6-bis(1,1-dimethylethyl)phenyl] ester] | 8.7 µM | – | 70% at 15 | – |
| CC(C)(C)c1cc(SCc2ccc(C(F)(F)F)cc2)cc(C(C)(C)C)c1O [(2,6-di-tert-butyl4-thio(4′-(trifluoromethyl)benzyl)phenol] | 5 µM | – | – | 16 µM |
| CC(C)(C)c1cc(SCCc2ccc([N+](=O)[O-])cc2)cc(C(C)(C)C)c1O [2,6-di-tert-butyl-4-thio(4′-nitrophenethyl)phenol] | 15 µM | – | – | – |
| CC1(C)OC2OC(COc3c(C(C)(C)C)cc(SC(C)(C)Sc4cc(C(C)(C)C)c(O)c(C(C)(C)C)c4)cc3C(C)(C)C)C3OC(C)(C)OC3C2O1 [α-D-Galactopyranose, 60-[4-[[1-[[3,5-bis(1,1-dimethylethyl)-4-hydroxyphenyl]thio]-1-methylethyl]thio]-2,6-bis(1,1-dimethylethyl)phenyl]-1,2:3,4-bis-O-(1-methylethylidene)] | 45 µM | – | – | – |
| CC(C)(C)c1cc(SCc2ccc([N+](=O)[O-])cc2[N+](=O)[O-])cc(C(C)(C)C)c1O [2,6-di-tert-butyl4-thio(2′,4′-dinitrobenzyl)phenol] | 8 µM | – | – | 32 µM |
| CC(C)(C)c1cc(SCc2ccc(CCO)cc2)cc(C(C)(C)C)c1O [2,6-di-tert-butyl-4-thio(4′-(methyl)phenylethyl alcohol))phenol] | 15 µM | – | 53% at 15 | – |
| CC(=O)OC(C)(C)CSc1cc(C(C)(C)C)c(O)c(C(C)(C)C)c1 [2,6-di-tert-butyl-4-thio(2′-acetoxy,2′-methylpropyl)phenol] | 50 µM | – | – | – |
| Oxiranemethanol, α-[[[3-[[4-[[1-[[3,5-bis(1,1-dimethylethyl)-4-hydroxyphenyl]thio]-1-methylethyl]thio]-2,6-bis(1,1-dimethylethyl)phenoxy]methyl]oxiranyl]methoxy]methyl]- | 60 µM | – | – | – |
| CC(=O)Oc1ccc(CSc2cc(C(C)(C)C)c(O)c(C(C)(C)C)c2)cc1 [2,6-di-tert-butyl-4-thio(4′-acetoxybenzyl)phenol] | 18 µM | – | – | 40 µM |
| 2,6-di-tert-butyl-4-thio(3′,5′-ditert-butyl,4′-hydroxy butanedioic acid ester)phenol | 6 µM | – | – | – |
| CC(C)(C)c1cc(SCCCS(=O)(=O)O)cc(C(C)(C)C)c1O [2,6-di-tert-butyl-4-thio(3′-propanesulfonic acid)phenol] | – | 25% at 50 | – | – |
| CN(C)Cc1ccc(CSc2cc(C(C)(C)C)c(O)c(C(C)(C)C)c2)o1 [2,6-di-tert-butyl-4-thio(5′-methyl-2′-((dimethylamino)methyl)furan)phenol] | 10 µM | – | – | 19 µM |
| CC(C)(C)c1cc(SCc2ccc(F)cc2)cc(C(C)(C)C)c1O [2,6-di-tert-butyl-4-thio(4′-fluorobenzyl)phenol] | 35 µM | – | – | 30 µM |
| CC(C)(C)c1cc(SCc2ccc(CC(=O)O)cc2)cc(C(C)(C)C)c1O [2,6-di-tert-butyl-4-thio(4′(methyl)phenylacetic acid))phenol] | 80 µM | – | 7% at 15 | – |
| Cc1ccc(CSc2cc(C(C)(C)C)c(O)c(C(C)(C)C)c2)cc1 [2,6-di-tert-butyl-4-thio(4′-methylbenzyl)phenol] | 75 µM | – | – | 22 µM |
| CC(C)(C)c1cc(SCc2cccc([N+](=O)[O-])c2)cc(C(C)(C)C)c1O [2,6-di-tert-butyl-4-thio(3′-nitrobenzyl)phenol] | 13 µM | – | – | 20 µM |
| CC(C)(C)c1cc(SCCCC(=O)O)cc(C(C)(C)C)c1O [2,6-di-tert-butyl-4-thio(butanoic acid)phenol] | 75 µM | – | – | – |
| CC(C)(C)c1cc(S(=O)(=O)Cc2ccc([N+](=O)[O-])cc2)cc(C(C)(C)C)c1O [2,6-di-tert-butyl4-(sulfonyl-(4′-nitrobenzyl))phenol] | 40 µM | – | – | 25 µM |
| CC(C)(Sc1cc(C(C)(C)C)c(O)c(C(C)(C)C)c1)Sc1cc(C(C)(C)C)c(OCC(O)C2CO2)c(C(C)(C)C)c1 (stereo not drawn) [Oxiranemethanol, α-[[4-[[1-[[3,5-bis(1,1-dimethylethyl)-4-hydroxyphenyl]thio]-1-methylethyl]thio]-2,6-bis(1,1-dimethylethyl)phenoxy]methyl]-] | 45 µM | – | – | – |
